{"source": "paper PMC11831560", "about": "“Development of the Pyrido[2,3-d]pyrimidin-7(8H)-one Scaffold toward Potent and Selective NUAK1 Inhibitors” (ACS Medicinal Chemistry Letters, 2025)", "experiment_in_all_cases": "Kinase panel radiometric filter binding (33P-ATP)", "format_in_all_cases": "biochemical", "set-up_in_all_cases": "dose or concentration left out as unconfirmed", "key": {"[1]": {"target": "MKK1 (Homo sapiens, UniProt Q02750)", "sequence (Q02750 whole entry)": "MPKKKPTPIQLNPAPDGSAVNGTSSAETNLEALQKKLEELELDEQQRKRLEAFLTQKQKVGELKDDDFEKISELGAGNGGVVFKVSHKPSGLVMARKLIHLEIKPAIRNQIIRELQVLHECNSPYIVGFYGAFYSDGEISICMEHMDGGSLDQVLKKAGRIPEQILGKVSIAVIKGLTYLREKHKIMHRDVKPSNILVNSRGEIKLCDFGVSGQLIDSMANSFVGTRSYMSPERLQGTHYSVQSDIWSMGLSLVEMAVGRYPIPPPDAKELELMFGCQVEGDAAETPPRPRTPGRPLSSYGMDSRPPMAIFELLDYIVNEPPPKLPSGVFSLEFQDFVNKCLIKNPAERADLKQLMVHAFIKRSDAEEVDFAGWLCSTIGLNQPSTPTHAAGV", "procedure": "(§1) Table S4: AMPKA kinase activity data (ADP-Glo assay)\n(§2) Compound pIC50 (Fold selectivity\n(§3) Table S5. Kinase selectivity screening for 9 and 24 at 1 µM against a general kinase panel of 140 targets\n(§4) in radiometric filter binding assay using 33P-γ−ATP at the MRC PPU International Centre for Kinase\n(§5) Profiling, University of Dundee. pIC50 values were determined for compounds with <20% activity\n(§6) Kinase activity s.d. pIC50 activity s.d. pIC50"}, "[2]": {"target": "IRR (Homo sapiens, UniProt P14616)", "sequence (P14616 27-1297)": "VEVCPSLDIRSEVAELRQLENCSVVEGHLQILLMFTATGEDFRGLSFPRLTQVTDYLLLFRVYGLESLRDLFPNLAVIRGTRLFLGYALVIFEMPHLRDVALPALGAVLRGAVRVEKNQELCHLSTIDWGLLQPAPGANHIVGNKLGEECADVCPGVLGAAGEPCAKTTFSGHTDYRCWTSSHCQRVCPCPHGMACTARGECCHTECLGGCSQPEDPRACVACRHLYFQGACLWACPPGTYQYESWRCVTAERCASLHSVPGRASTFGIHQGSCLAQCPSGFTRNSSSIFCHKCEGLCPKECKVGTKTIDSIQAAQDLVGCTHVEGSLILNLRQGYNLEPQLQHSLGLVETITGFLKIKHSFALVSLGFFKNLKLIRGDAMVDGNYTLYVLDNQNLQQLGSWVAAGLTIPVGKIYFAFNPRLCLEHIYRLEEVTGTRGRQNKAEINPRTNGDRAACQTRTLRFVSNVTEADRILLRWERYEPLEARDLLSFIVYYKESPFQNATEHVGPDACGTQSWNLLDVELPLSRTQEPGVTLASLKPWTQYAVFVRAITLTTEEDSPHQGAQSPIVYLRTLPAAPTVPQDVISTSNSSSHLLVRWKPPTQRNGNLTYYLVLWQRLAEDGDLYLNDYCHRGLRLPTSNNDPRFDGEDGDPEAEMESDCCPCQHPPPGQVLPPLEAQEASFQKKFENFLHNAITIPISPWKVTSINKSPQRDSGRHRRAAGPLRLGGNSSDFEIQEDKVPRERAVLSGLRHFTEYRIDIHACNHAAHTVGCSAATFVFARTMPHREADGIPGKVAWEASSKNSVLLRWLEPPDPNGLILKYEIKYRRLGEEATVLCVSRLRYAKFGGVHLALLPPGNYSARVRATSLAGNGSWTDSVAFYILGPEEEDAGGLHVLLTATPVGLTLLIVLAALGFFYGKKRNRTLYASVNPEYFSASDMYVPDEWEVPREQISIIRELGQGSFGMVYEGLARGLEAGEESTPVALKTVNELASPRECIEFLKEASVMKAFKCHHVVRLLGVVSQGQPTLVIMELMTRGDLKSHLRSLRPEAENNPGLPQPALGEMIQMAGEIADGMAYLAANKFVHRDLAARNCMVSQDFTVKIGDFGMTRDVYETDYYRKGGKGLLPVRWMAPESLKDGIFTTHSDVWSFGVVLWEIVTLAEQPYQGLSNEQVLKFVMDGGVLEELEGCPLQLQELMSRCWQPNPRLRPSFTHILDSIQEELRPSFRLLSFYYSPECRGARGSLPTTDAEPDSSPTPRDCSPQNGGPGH", "procedure": "as §1, §2, §3, §4, §5, §6"}, "[3]": {"target": "IKKe (Homo sapiens, UniProt Q14164)", "sequence (Q14164 whole entry)": "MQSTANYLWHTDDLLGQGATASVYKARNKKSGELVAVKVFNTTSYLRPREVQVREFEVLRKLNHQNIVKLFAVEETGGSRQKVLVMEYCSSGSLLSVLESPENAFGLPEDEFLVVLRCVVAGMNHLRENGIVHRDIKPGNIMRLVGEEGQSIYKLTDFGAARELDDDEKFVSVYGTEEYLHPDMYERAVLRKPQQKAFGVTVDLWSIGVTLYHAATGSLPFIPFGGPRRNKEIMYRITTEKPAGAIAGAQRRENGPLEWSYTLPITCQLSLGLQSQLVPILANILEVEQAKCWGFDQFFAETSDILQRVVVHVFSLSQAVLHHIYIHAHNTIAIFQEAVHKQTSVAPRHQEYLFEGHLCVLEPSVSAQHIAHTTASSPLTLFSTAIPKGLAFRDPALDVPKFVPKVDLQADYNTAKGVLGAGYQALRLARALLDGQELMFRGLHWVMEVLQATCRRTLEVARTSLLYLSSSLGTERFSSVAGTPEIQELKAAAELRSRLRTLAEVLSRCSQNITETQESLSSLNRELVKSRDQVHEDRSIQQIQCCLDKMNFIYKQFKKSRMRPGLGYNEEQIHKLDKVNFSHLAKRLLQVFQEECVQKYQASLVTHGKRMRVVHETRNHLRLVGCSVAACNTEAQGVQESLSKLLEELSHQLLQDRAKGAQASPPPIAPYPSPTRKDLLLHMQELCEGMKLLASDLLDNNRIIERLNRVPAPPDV", "procedure": "as §1, §2, §3, §4, §5, §6"}, "[4]": {"target": "PAK4 (Homo sapiens, UniProt O96013)", "procedure": "as §1, §2, §3, §4, §5, §6"}, "[5]": {"target": "TTBK2 (Homo sapiens, UniProt Q6IQ55)", "procedure": "as §1, §2, §3, §4, §5, §6"}, "[6]": {"target": "PLK1 (Homo sapiens, UniProt P53350)", "sequence (P53350 whole entry)": "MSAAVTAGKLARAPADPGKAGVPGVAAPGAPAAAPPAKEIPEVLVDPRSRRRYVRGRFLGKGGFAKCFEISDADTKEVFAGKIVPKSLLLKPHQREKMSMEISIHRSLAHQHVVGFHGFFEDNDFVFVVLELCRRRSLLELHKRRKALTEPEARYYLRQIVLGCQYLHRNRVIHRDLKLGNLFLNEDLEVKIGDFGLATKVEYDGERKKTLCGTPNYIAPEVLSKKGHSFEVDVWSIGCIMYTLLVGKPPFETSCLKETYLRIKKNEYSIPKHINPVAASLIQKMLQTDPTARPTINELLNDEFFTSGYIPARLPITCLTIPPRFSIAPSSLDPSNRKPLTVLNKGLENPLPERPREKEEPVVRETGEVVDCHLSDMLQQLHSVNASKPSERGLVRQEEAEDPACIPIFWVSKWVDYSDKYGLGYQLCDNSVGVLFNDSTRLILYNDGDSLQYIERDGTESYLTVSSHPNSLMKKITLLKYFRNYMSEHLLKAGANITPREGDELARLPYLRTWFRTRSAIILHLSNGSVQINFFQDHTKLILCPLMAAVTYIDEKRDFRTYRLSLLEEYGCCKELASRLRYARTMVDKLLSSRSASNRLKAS", "procedure": "as §1, §2, §3, §4, §5, §6"}, "[7]": {"target": "GCK (Homo sapiens, UniProt Q12851)", "procedure": "as §1, §2, §3, §4, §5, §6"}, "[8]": {"target": "p38d MAPK (Homo sapiens, UniProt O15264)", "procedure": "as §1, §2, §3, §4, §5, §6"}, "[9]": {"target": "CHK1 (Homo sapiens, UniProt O14757)", "procedure": "as §1, §2, §3, §4, §5, §6"}, "[10]": {"target": "CDK2-Cyclin A (Homo sapiens, UniProt P24941)", "procedure": "as §1, §2, §3, §4, §5, §6"}, "[11]": {"target": "DYRK2 (Homo sapiens, UniProt Q92630)", "procedure": "as §1, §2, §3, §4, §5, §6"}, "[12]": {"target": "MINK1 (Homo sapiens, UniProt Q8N4C8)", "sequence (Q8N4C8 whole entry)": "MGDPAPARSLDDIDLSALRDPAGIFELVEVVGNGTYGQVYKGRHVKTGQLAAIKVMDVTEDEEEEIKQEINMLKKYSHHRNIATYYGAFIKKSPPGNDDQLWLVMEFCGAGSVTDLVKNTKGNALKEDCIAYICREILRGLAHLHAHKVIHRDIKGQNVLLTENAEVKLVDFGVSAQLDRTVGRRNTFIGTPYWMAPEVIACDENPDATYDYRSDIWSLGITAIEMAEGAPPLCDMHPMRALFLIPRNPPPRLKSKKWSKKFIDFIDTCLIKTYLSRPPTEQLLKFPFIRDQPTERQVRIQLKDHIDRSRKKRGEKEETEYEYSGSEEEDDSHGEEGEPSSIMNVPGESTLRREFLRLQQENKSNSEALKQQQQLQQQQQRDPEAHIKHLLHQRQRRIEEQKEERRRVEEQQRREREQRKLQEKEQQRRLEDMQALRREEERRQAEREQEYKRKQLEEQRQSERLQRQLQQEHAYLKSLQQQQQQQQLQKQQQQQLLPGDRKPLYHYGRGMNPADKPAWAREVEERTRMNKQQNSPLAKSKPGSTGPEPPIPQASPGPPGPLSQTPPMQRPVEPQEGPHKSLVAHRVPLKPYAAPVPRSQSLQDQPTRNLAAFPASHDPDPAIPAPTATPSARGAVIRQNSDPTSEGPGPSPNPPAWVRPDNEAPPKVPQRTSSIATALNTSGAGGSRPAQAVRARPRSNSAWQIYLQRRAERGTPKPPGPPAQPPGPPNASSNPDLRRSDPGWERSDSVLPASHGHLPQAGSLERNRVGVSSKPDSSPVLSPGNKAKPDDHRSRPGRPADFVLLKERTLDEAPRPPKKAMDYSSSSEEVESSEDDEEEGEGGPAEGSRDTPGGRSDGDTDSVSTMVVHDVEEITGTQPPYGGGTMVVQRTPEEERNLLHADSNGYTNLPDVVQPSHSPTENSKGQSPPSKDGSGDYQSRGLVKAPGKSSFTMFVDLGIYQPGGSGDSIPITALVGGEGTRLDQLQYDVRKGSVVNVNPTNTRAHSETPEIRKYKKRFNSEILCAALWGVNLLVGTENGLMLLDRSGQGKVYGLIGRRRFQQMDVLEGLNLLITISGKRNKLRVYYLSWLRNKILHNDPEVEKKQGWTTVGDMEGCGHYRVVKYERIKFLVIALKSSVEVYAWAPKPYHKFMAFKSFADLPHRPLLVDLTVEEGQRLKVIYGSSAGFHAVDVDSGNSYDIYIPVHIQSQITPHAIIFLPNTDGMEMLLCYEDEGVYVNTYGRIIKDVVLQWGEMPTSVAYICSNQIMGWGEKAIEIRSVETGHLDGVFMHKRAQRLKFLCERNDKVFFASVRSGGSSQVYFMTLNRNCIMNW", "procedure": "as §1, §2, §3, §4, §5, §6"}, "[13]": {"target": "FGF-R1 (Homo sapiens, UniProt P11362)", "procedure": "as §1, §2, §3, §4, §5, §6"}, "[14]": {"target": "MST4 (Homo sapiens, UniProt Q9P289)", "procedure": "as §1, §2, §3, §4, §5, §6"}, "[15]": {"target": "IRAK1 (Homo sapiens, UniProt P51617)", "procedure": "as §1, §2, §3, §4, §5, §6"}, "[16]": {"target": "MST2 (Homo sapiens, UniProt Q13188)", "procedure": "as §1, §2, §3, §4, §5, §6"}, "[17]": {"target": "TIE2 (Homo sapiens, UniProt Q02763)", "procedure": "as §1, §2, §3, §4, §5, §6"}, "[18]": {"target": "EPH-B2 (Homo sapiens, UniProt P29323)", "procedure": "as §1, §2, §3, §4, §5, §6"}, "[19]": {"target": "ERK5 (Homo sapiens, UniProt Q13164)", "procedure": "as §1, §2, §3, §4, §5, §6"}, "[20]": {"target": "DYRK1A (Homo sapiens, UniProt Q13627)", "procedure": "as §1, §2, §3, §4, §5, §6"}, "[21]": {"target": "SYK (Homo sapiens, UniProt P43405)", "procedure": "as §1, §2, §3, §4, §5, §6"}, "[22]": {"target": "MKK6 (Homo sapiens, UniProt P52564)", "procedure": "as §1, §2, §3, §4, §5, §6"}, "[23]": {"target": "TESK1 (Homo sapiens, UniProt Q15569)", "procedure": "as §1, §2, §3, §4, §5, §6"}, "[24]": {"target": "PKCγ (Homo sapiens, UniProt P05129)", "procedure": "as §1, §2, §3, §4, §5, §6"}, "[25]": {"target": "EIF2AK3 (Homo sapiens, UniProt Q9NZJ5)", "procedure": "as §1, §2, §3, §4, §5, §6"}, "[26]": {"target": "Aurora B (Homo sapiens, UniProt Q96GD4)", "procedure": "as §1, §2, §3, §4, §5, §6"}, "[27]": {"target": "WNK1 (Homo sapiens, UniProt Q9H4A3)", "procedure": "as §1, §2, §3, §4, §5, §6"}, "[28]": {"target": "PRAK (Homo sapiens, UniProt Q8IW41)", "procedure": "as §1, §2, §3, §4, §5, §6"}, "[29]": {"target": "p38b MAPK (Homo sapiens, UniProt Q15759)", "procedure": "as §1, §2, §3, §4, §5, §6"}, "[30]": {"target": "PAK2 (Homo sapiens, UniProt Q13177)", "procedure": "as §1, §2, §3, §4, §5, §6"}, "[31]": {"target": "CHK2 (Homo sapiens, UniProt O96017)", "procedure": "as §1, §2, §3, §4, §5, §6"}, "[32]": {"target": "MKK2 (Homo sapiens, UniProt P36507)", "procedure": "as §1, §2, §3, §4, §5, §6"}, "[33]": {"target": "PKBa (Homo sapiens, UniProt P31749)", "sequence (P31749 whole entry)": "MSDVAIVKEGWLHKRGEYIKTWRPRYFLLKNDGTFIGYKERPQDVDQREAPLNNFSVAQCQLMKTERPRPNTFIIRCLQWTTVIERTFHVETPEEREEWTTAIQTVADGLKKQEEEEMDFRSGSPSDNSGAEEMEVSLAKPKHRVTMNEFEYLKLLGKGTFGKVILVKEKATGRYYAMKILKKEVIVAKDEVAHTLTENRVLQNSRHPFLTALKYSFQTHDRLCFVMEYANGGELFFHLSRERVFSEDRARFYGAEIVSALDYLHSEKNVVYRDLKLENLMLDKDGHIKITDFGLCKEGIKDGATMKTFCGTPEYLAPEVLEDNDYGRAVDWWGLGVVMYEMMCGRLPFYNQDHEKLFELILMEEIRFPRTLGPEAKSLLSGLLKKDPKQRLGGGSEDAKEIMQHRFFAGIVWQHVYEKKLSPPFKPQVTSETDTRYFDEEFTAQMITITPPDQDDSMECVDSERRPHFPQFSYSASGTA", "procedure": "as §1, §2, §3, §4, §5, §6"}, "[34]": {"target": "ERK1 (Homo sapiens, UniProt P27361)", "procedure": "as §1, §2, §3, §4, §5, §6"}, "[35]": {"target": "PAK6 (Homo sapiens, UniProt Q9NQU5)", "procedure": "as §1, §2, §3, §4, §5, §6"}}, "data": [{"smiles": "CN1C2CC1CN(c1ccc(Nc3ncc4ccn(CC5CCOCC5)c4n3)cc1)C2", "note": "[Compound 24]", "values": [{"measurement": "% activity remaining", "setting": "[1]", "value": 71, "unit": "%"}, {"measurement": "% activity remaining", "setting": "[2]", "value": 94, "unit": "%"}, {"measurement": "% activity remaining", "setting": "[3]", "value": 93, "unit": "%"}, {"measurement": "% activity remaining", "setting": "[4]", "value": 89, "unit": "%"}, {"measurement": "% activity remaining", "setting": "[5]", "value": 96, "unit": "%"}, {"measurement": "% activity remaining", "setting": "[6]", "value": 64, "unit": "%"}, {"measurement": "% activity remaining", "setting": "[7]", "value": 89, "unit": "%"}, {"measurement": "% activity remaining", "setting": "[8]", "value": 110, "unit": "%"}, {"measurement": "% activity remaining", "setting": "[9]", "value": 75, "unit": "%"}, {"measurement": "% activity remaining", "setting": "[10]", "value": 79, "unit": "%"}, {"measurement": "% activity remaining", "setting": "[11]", "value": 103, "unit": "%"}, {"measurement": "% activity remaining", "setting": "[12]", "value": 79, "unit": "%"}, {"measurement": "% activity remaining", "setting": "[13]", "value": 81, "unit": "%"}, {"measurement": "% activity remaining", "setting": "[14]", "value": 92, "unit": "%"}, {"measurement": "% activity remaining", "setting": "[15]", "value": 71, "unit": "%"}, {"measurement": "% activity remaining", "setting": "[16]", "value": 91, "unit": "%"}, {"measurement": "% activity remaining", "setting": "[17]", "value": 62, "unit": "%"}, {"measurement": "% activity remaining", "setting": "[18]", "value": 82, "unit": "%"}, {"measurement": "% activity remaining", "setting": "[19]", "value": 102, "unit": "%"}, {"measurement": "% activity remaining", "setting": "[20]", "value": 141, "unit": "%"}, {"measurement": "% activity remaining", "setting": "[21]", "value": 81, "unit": "%"}, {"measurement": "% activity remaining", "setting": "[22]", "value": 88, "unit": "%"}, {"measurement": "% activity remaining", "setting": "[23]", "value": 94, "unit": "%"}, {"measurement": "% activity remaining", "setting": "[24]", "value": 81, "unit": "%"}, {"measurement": "% activity remaining", "setting": "[25]", "value": 86, "unit": "%"}, {"measurement": "% activity remaining", "setting": "[26]", "value": 64, "unit": "%"}, {"measurement": "% activity remaining", "setting": "[27]", "value": 84, "unit": "%"}, {"measurement": "% activity remaining", "setting": "[28]", "value": 83, "unit": "%"}, {"measurement": "% activity remaining", "setting": "[29]", "value": 108, "unit": "%"}, {"measurement": "% activity remaining", "setting": "[30]", "value": 107, "unit": "%"}, {"measurement": "% activity remaining", "setting": "[31]", "value": 98, "unit": "%"}, {"measurement": "% activity remaining", "setting": "[32]", "value": 91, "unit": "%"}, {"measurement": "% activity remaining", "setting": "[33]", "value": 110, "unit": "%"}, {"measurement": "% activity remaining", "setting": "[34]", "value": 98, "unit": "%"}, {"measurement": "% activity remaining", "setting": "[35]", "value": 118, "unit": "%"}]}, {"smiles": "Cc1cc(=O)n(C2CCCC2)c2nc(Nc3ccc(N4CC5CC(C4)N5C)cc3)ncc12", "note": "[Compound 9]", "values": [{"measurement": "% activity remaining", "setting": "[1]", "value": 108, "unit": "%"}, {"measurement": "% activity remaining", "setting": "[2]", "value": 70, "unit": "%"}, {"measurement": "% activity remaining", "setting": "[3]", "value": 84, "unit": "%"}, {"measurement": "% activity remaining", "setting": "[4]", "value": 50, "unit": "%"}, {"measurement": "% activity remaining", "setting": "[5]", "value": 97, "unit": "%"}, {"measurement": "% activity remaining", "setting": "[6]", "value": 32, "unit": "%"}, {"measurement": "% activity remaining", "setting": "[7]", "value": 76, "unit": "%"}, {"measurement": "% activity remaining", "setting": "[8]", "value": 94, "unit": "%"}, {"measurement": "% activity remaining", "setting": "[9]", "value": 57, "unit": "%"}, {"measurement": "% activity remaining", "setting": "[10]", "value": 59, "unit": "%"}, {"measurement": "% activity remaining", "setting": "[11]", "value": 103, "unit": "%"}, {"measurement": "% activity remaining", "setting": "[12]", "value": 30, "unit": "%"}, {"measurement": "% activity remaining", "setting": "[13]", "value": 56, "unit": "%"}, {"measurement": "% activity remaining", "setting": "[14]", "value": 61, "unit": "%"}, {"measurement": "% activity remaining", "setting": "[15]", "value": 75, "unit": "%"}, {"measurement": "% activity remaining", "setting": "[16]", "value": 62, "unit": "%"}, {"measurement": "% activity remaining", "setting": "[17]", "value": 115, "unit": "%"}, {"measurement": "% activity remaining", "setting": "[18]", "value": 60, "unit": "%"}, {"measurement": "% activity remaining", "setting": "[19]", "value": 80, "unit": "%"}, {"measurement": "% activity remaining", "setting": "[20]", "value": 78, "unit": "%"}, {"measurement": "% activity remaining", "setting": "[21]", "value": 49, "unit": "%"}, {"measurement": "% activity remaining", "setting": "[22]", "value": 84, "unit": "%"}, {"measurement": "% activity remaining", "setting": "[23]", "value": 96, "unit": "%"}, {"measurement": "% activity remaining", "setting": "[24]", "value": 72, "unit": "%"}, {"measurement": "% activity remaining", "setting": "[25]", "value": 41, "unit": "%"}, {"measurement": "% activity remaining", "setting": "[26]", "value": 61, "unit": "%"}, {"measurement": "% activity remaining", "setting": "[27]", "value": 103, "unit": "%"}, {"measurement": "% activity remaining", "setting": "[28]", "value": 99, "unit": "%"}, {"measurement": "% activity remaining", "setting": "[29]", "value": 91, "unit": "%"}, {"measurement": "% activity remaining", "setting": "[30]", "value": 97, "unit": "%"}, {"measurement": "% activity remaining", "setting": "[31]", "value": 72, "unit": "%"}, {"measurement": "% activity remaining", "setting": "[32]", "value": 94, "unit": "%"}, {"measurement": "% activity remaining", "setting": "[33]", "value": 103, "unit": "%"}, {"measurement": "% activity remaining", "setting": "[34]", "value": 97, "unit": "%"}, {"measurement": "% activity remaining", "setting": "[35]", "value": 78, "unit": "%"}]}]}
